{"source": "patent US6228602A", "about": "“Competitive apo-peroxidase assay” (Bayer Corporation, priority 1999, dated 2001)", "key": {"Apoglucose oxidase": {"target": "Apoglucose oxidase", "conditions": "apoglucose oxidase and FAD; U.S. Pat. No. 4,493,890; read-out: binding constant; cited from earlier work"}, "apo-POD [1]": {"target": "T1, apo-POD (Armoracia rusticana, UniProt P00433)", "T1 construct": "purchased Sigma Chemical Company, St. Louis, Mo", "T1 sequence (P00433 31-353)": "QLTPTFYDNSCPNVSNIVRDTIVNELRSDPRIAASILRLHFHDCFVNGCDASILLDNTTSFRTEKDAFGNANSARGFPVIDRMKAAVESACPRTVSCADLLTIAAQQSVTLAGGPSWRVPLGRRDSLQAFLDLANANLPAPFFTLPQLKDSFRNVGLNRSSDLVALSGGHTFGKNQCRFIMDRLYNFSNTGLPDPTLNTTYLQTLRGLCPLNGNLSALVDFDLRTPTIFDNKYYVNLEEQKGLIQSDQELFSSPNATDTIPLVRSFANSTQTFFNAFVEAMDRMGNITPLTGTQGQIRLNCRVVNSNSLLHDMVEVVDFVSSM", "assay": "Interference study with peroxidase detecting dry reagent (Example III)", "type": "biochemical, horse radish", "conditions": "hemoglobin/myoglobin: reagent without modification; ascorbate: system with ascorbate scavenger", "protocol": "In this example, a peroxidase detecting dry reagent with resistance to 0.81 mg/dL hemoglobin (or myoglobin) and 25 mg/dL ascorbate and sufficient sensitivity to detect apo-peroxidase reactivation was used. […]\nThe reagent was tested by dipping it into solutions containing the interfering substance with and without Fe hematin. […]"}, "apo-Hb": {"target": "T2, apo-Hb (Homo sapiens, UniProt P68871+P69905)", "T2 construct": "made in house", "T2 sequence (P69905 2-142 limits assumed)": "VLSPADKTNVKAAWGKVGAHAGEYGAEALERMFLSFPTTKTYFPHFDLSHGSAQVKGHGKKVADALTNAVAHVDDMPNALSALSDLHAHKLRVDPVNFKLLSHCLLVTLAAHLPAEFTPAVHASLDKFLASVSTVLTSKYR", "T2 sequence (P68871 2-147 limits assumed)": "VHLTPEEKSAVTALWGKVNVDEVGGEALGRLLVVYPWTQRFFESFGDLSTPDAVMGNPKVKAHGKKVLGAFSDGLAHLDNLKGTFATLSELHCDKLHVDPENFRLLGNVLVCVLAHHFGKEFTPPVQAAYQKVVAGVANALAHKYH", "assay": "Metal porphyrin study: reactivation of apo-hemoglobin (Example IV)", "type": "biochemical", "conditions": "12 μM apo-Hb, 12 μM metal porphyrin, HEMASTIX no lepidine/pH 7.5", "protocol": "(§1) In this example, other metal porphyrins were tested for their ability to reactivate different types of apo-peroxidases. Metals such as Fe, Cu, Mg, Zn, Ni, Mn, Co and Pd were complexed to hematin and added to the peroxidase detecting agent. Metals such as Mn, Fe, Cu and Co and porphyrins other than hematin, i.e. deuteroporphyrin and coproporphyrin were also shown to provide the desired response.\nA 0.7% solution of hemoglobin was lowered to pH 1.5 and the resulting solution was ultrafiltered through a 10 KDa cutoff membrane followed by several changes of water. Filtered material was reconstituted into water. The apo-hemoglobin passed […]. […] It produced a HEMASTIX® result of +++++ indicating a high concentration of hemoglobin."}, "[2]": {"assay": "Metal porphyrin study: metal porphyrin in water without apo-enzyme (Example IV)", "type": "biochemical", "conditions": "HEMASTIX no lepidine/pH 7.5", "protocol": "as §1"}, "apo-POD [3]": {"target": "T1, apo-POD", "assay": "Metal porphyrin study: reactivation of apo-peroxidase (Example IV)", "type": "biochemical, horse radish", "conditions": "12 μM apo-POD, HEMASTIX no lepidine/pH 7.5", "protocol": "as §1"}, "apo-POD [4]": {"target": "T1, apo-POD", "assay": "Detection limit study: peroxidase activity / apo-POD reactivation read with HEMASTIX reagent (Example I)", "type": "biochemical, horse radish", "conditions": "3.6 nM", "protocol": "In this example apo-peroxidase is compared to hematin and hematin-antigen conjugates to determine the detectable concentrations and effects of conjugation and antigen molecular weight on apo-enzyme reactivations. Solutions containing combinations of apo-POD, Fe^+3 hematin and hematin conjugate were tested for peroxidase activity. Peroxidase activity was measured in urine using HEMASTIX® reagent as set out in Table 3. This reagent is similar to that set out in Table 1 but lacking the metal porphyrin conjugate, competitive binder and apo-peroxidase while containing lepidine as an activator.\nA 10 μL portion of hematin (3.6 μM, 0.23 mg/dL in phosphate buffered saline) or a 10 μL hematin-BJP allotment (3.6 μM, 8.61 mg/dL in phosphate buffered saline) was mixed with 10 μL apo-POD (3.6 μM, 14.0 mg/dL in phosphate buffered saline) all in 980 μL of phosphate buffered saline and then diluted to the desired concentration with additional phosphate buffered saline. The solution was incubated for 1 minute at 40° C. or at room temperature. The response of HEMASTIX® reagent dipped into the test solution was measured on a CLINITEK™-200 reflectance instrument. The response of the reagent set out in Table 1 on the phosphate buffered solution alone was 65.2% reflectance at 1 minute.\nApo-horse radish peroxidase was obtained from Sigma Chemical Company of St. Louis, Mo. The phosphate buffered solution was prepared by adding 0.69 g monobasic sodium phosphate, 0.71 g of dibasic sodium phosphate and 0.45 g of sodium chloride to 100 mL of water.\nThe HEMASTIX® reagent referred to earlier with the addition of lepidine and at a lower pH when compared to the formula of Table 1 was applied to the strip in a two dip system of the following composition and used in Examples I to IV (Table 3)."}, "apo-POD [5]": {"target": "T1, apo-POD", "assay": "Detection limit study: peroxidase activity / apo-POD reactivation read with HEMASTIX reagent (Example I)", "type": "biochemical, horse radish", "conditions": "1 minute @ 30° C."}, "apo-peroxidase": {"target": "T3, apo-peroxidase (Armoracia rusticana, UniProt P00433)", "T3 construct": "purchased Sigma Chemical Company, St. Louis, Mo", "T3 sequence (P00433 31-353)": "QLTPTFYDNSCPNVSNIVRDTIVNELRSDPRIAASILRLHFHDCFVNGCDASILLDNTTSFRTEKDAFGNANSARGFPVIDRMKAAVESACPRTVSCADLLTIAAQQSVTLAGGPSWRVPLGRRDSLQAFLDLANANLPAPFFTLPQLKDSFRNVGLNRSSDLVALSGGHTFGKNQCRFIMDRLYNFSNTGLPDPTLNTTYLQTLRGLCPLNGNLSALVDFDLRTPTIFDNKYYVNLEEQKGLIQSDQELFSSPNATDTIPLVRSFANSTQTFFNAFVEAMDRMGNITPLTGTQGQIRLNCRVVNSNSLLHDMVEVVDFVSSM", "assay": "Proximity effect: antibody binding of hematin-antigen conjugate prevents apo-enzyme reactivation (Example II)", "type": "biochemical, horse radish", "conditions": "for Reagent Response (% R @ 30 Sec) @ 660 nm: 36 nM apo-peroxidase, 36 nM antigen-hematin, 36 nM antibody", "protocol": "A 10 μL sample of hematin-BJP^1 (3.6 μM, 8.61 mg/dL in phosphate buffered saline), anti-BJP (3.6 μM, 52.56 mg/dL in PBS) and BJP (3.6 μM, 8.28 mg/dL in phosphate buffered saline) were mixed with 10 μL apo-POD (3.6 μM, 14.0 mg/dL in phosphate buffered saline) and […] phosphate buffered saline. The solution was incubated for 5 to 10 minutes at room temperature and the response to HEMASTIX® reagent dipped in the test solution was measured using a CLINITEK®-200 instrument. The response of HEMASTIX® reagent with the phosphate buffered saline solution containing hematin alone was 65.7% reflectance at 1 minute. Sheep anti-human BJP monoclonal antibody was obtained from The Binding Site Limited of Birmingham, England.\nIn this example, antibody binding of the hematin-antigen conjugate is shown to prevent apo-enzyme reactivation (Table 4). The data set out in Table 4 were generated by using the HEMASTIX® formula with lepidine but lacking apo-peroxidase, antigen-hematin antigen and antibody. The later were mixed in solution and reagent strips with the modified HEMASTIX® formula were immediately dipped into the solution and read using a CLINITEK™-200+ reflectance spectrometer."}}}
{"molecule": "Cc1cc2nc3c(=O)[nH]c(=O)nc-3n(C[C@H](O)[C@H](O)[C@H](O)COP(=O)(O)OP(=O)(O)OC[C@H]3O[C@@H](n4cnc5c(N)ncnc54)[C@H](O)[C@@H]3O)c2cc1C", "note": "[FAD, flavin adenine dinucleotide]", "values": [{"measurement": "Kd", "setting": "Apoglucose oxidase", "result": "~0.1", "unit": "nM"}]}
{"molecule": "hemoglobin: interfering substance, 0.81 mg/dL", "values": [{"measurement": "interference with peroxidase detecting reagent (in words)", "setting": "apo-POD [1]", "result": "causes a false positive response"}]}
{"molecule": "Fe coproporphyrin", "values": [{"measurement": "% R @ 90 second read time on CLINITEK-200+, mean", "setting": "apo-Hb", "result": 52.1, "unit": "% R"}, {"measurement": "% R @ 90 second read time on CLINITEK-200+, mean", "setting": "[2]; 12 μM metal porphyrin", "result": 69.7, "unit": "% R"}, {"measurement": "% R @ 90 second read time on CLINITEK-200+, mean", "setting": "apo-POD [3]; 12 μM metal porphyrin", "result": 56.4, "unit": "% R"}]}
{"molecule": "CC1=Cc2cc3[n-]c(cc4nc(cc5[n-]c(cc1n2)cc5C)C(C)=C4CCC(=O)O)c(CCC(=O)O)c3C.[Mg+2]", "note": "[Mg deuteroporphyrin]", "values": [{"measurement": "% R @ 90 second read time on CLINITEK-200+, mean", "setting": "[2]; 120 μM metal porphyrin", "result": 74.4, "unit": "% R"}, {"measurement": "% R @ 90 second read time on CLINITEK-200+, mean", "setting": "apo-POD [3]; 120 μM metal porphyrin", "result": 70.9, "unit": "% R"}]}
{"molecule": "C=CC1=C(C)c2cc3[n-]c(cc4[n-]c(cc5nc(cc1n2)C(C)=C5C=C)c(C)c4CCC(=O)O)c(CCC(=O)O)c3C.O.[Fe+2]", "note": "[hematin]", "values": [{"measurement": "peroxidase activity (in words)", "setting": "apo-POD [4]; in the presence of apo-POD", "result": "detectable at 3.6 nM"}, {"measurement": "peroxidase activity (in words)", "setting": "apo-POD [4]; without partner", "result": "not detectable"}, {"measurement": "Mean % Reflectance @ 660 nm", "setting": "apo-POD [5]; 3.6 nM, antigen IgG, hematin, antigen-hematin or apo-POD alone (Cases A, B, E)", "result": 64.9, "unit": "%"}, {"measurement": "Mean % Reflectance @ 660 nm", "setting": "apo-POD [5]; 3.6 nM, antigen IgG, with apo-POD (Cases C, D)", "result": 46.3, "unit": "%"}, {"measurement": "Mean % Reflectance @ 660 nm", "setting": "apo-POD [5]; (3.6 nM; antigen Sulfmethazine), hematin, antigen-hematin or apo-POD alone (Cases A, B, E)", "result": 63.4, "unit": "%"}, {"measurement": "Mean % Reflectance @ 660 nm", "setting": "apo-POD [5]; (3.6 nM; antigen Sulfmethazine), with apo-POD (Cases C, D)", "result": 48.9, "unit": "%"}, {"measurement": "Mean % Reflectance @ 660 nm", "setting": "apo-POD [5]; (3.6 mM; antigen BJP), hematin, antigen-hematin or apo-POD alone (Cases A, B, E)", "result": 65.1, "unit": "%"}, {"measurement": "Mean % Reflectance @ 660 nm", "setting": "apo-POD [5]; (3.6 mM; antigen BJP), with apo-POD (Cases C, D)", "result": 55.3, "unit": "%"}, {"measurement": "response of HEMASTIX reagent, % reflectance", "setting": "apo-peroxidase; phosphate buffered saline solution containing hematin alone, 1 minute", "result": 65.7, "unit": "% reflectance"}]}
{"molecule": "Cc1cc(C)nc(NS(=O)(=O)c2ccc(N)cc2)n1", "note": "[Sulfamethazine]", "values": [{"measurement": "Reagent Response (% R @ 30 Sec) @ 660 nm", "setting": "apo-peroxidase; 24 nM antigen", "result": 21.3, "unit": "% R"}, {"measurement": "Reagent Response (% R @ 30 Sec) @ 660 nm", "setting": "apo-peroxidase; free antigen none", "result": 23.6, "unit": "% R"}, {"measurement": "prevention of apo-enzyme reactivation by antibody (in words)", "setting": "apo-peroxidase; antigen-hematin plus antibody", "result": "did not prevent apo-enzyme reactivation"}]}
{"molecule": "Co deuteroporphyrin", "values": [{"measurement": "% R @ 90 second read time on CLINITEK-200+, mean", "setting": "[2]; 120 μM metal porphyrin", "result": 71.5, "unit": "% R"}, {"measurement": "% R @ 90 second read time on CLINITEK-200+, mean", "setting": "apo-POD [3]; 120 μM metal porphyrin", "result": 74.1, "unit": "% R"}]}
{"molecule": "myoglobin: interfering substance, 0.81 mg/dL (protein, UniProt P02144 2-154, looked up) Myoglobin: GLSDGEWQLVLNVWGKVEADIPGHGQEVLIRLFKGHPETLEKFDKFKHLKSEDEMKASEDLKKHGATVLTALGGILKKKGHHEAEIKPLAQSHATKHKIPVKYLEFISECIIQVLQSKHPGDFGADAQGAMNKALELFRKDMASNYKELGFQG", "values": [{"measurement": "interference with peroxidase detecting reagent (in words)", "setting": "apo-POD [1]", "result": "causes a false positive response"}]}
